# Values of other authors, collected in patent US12409165B2, “Pharmaceutical composition comprising eltrombopag bis(monoethanolamine)” (SYNTHON B.V., priority 2019, dated 2025).
# Experiments:
# [1] = qualitative statement in the background, no method given
# [2] = qualitative statement in the background, no method given; remark: listed apart in the source
smiles,measurement,setting,value
"CC1=NN(c2ccc(C)c(C)c2)C(=O)/C1=N\Nc1cccc(-c2cccc(C(=O)O)c2)c1O.NCCO.NCCO [Eltrombopag bis(monoethanolamine), 3′-{(2Z)-2-[1-(3,4-dimethylphenyl)-3-methyl-5-oxo-1,5-dihydro-4H-pyrazol-4-ylidene]hydrazino}-2′-hydroxy-3-biphenyl-carboxylic acid bis(monoethanolamine)]",solubility,[1],low
same,permeability,[2],medium
